Experimental data published in patent US8435976B2, “4-substituted pyridin-3-yl-carboxamide compounds and methods of use” (F. Hoffmann-La Roche, priority 2009, dated 2013).

Key:
BaF3 PIM2 cells = BaF3 PIM2 cells (Homo sapiens, UniProt Q9P1W9); test: BaF3 PIM2 cell proliferation (Cell Titer Glo); format: cell-based; details: incubated overnight; read-out: Prolif BaF3_PIM2 (IC50)
Procedure: BaF3 parental line was obtained from the DSMZ repository. BaF3 lines transfected with PIM1 or PIM2 were generated. Mouse IL-3 was purchased from R&D Systems. G418 was purchased from Clontech. Media for BaF3 parental line contained RPMI, 10% FBS, 2 mM L-Glutamine, 2 ng/mL mIL-3. Media for BaF3 PIM1 & 2 lines contained RPMI, 10% FBS, 2 mM L-Glutamine, […]. Media for MM1.S line contained RPMI, 10% FBS, 2 mM L-Glutamine.
BaF3 parental cells, BaF3 PIM1 cells, BaF3 PIM2 cells, and MM1.S cells were seeded at 2 k/well, 5 k/well, 5 k/well, and 10 k/well respectively, in a 384-well plate, at 45 μL/well. Test compound was added at 5 μL/well. BaF3 cells (parental and transfected) were incubated overnight, while MM1.S cells were incubated for 72 hours at 37° C., 5% CO2. Cell Titer Glo Reagent (Promega) was added at 50 μL/well, the plates were incubated for 30 minutes, and their luminescence read on an HT Analyst. IC50/EC50 values for the test compound were calculated.

PIM3 = molecular target: T1, PIM3 (Homo sapiens, UniProt Q86V86); test: Pim-3 kinase enzymatic assay (Caliper LC3000, FAM-Pimtide substrate); format: biochemical; details: 55 pM PIM3, 10 μM ATP, 90 minutes; read-out: PIM3 LC3K (Ki)
T1 construct: made in house

MM1.S cells = test: MM1.S cell proliferation, 72 hours (Cell Titer Glo); format: cell-based; details: Homo sapiens, 72 hours, read-out: Prolif MM1S ATP (EC50)
Method in brief: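 BaF3 parental cells (2 k/well, with 2 ng/mL mIL-3) were treated overnight, and MM1.S cells (10 k/well) were treated for 72 h at 37 °C. Viability was read by CellTiter-Glo luminescence. IC50/EC50 values were calculated from the luminescence data.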

PIM2 = molecular target: T2, PIM2 (Homo sapiens, UniProt Q9P1W9); test: Pim-2 kinase enzymatic assay (Caliper LC3000, FAM-Pimtide substrate); format: biochemical; details: 50 pM PIM2, 10 μM ATP, 90 minutes; read-out: PIM2 LC3K (Ki)
T2 construct: made in house

PIM1 = molecular target: T3, PIM1 (Homo sapiens, UniProt P11309); test: Pim-1 kinase enzymatic assay (Caliper LC3000, FAM-Pimtide substrate); format: biochemical; details: 20 pM PIM1, 10 μM ATP, 90 minutes; read-out: PIM1 LC3K (Ki)
T3 construct: made in house

BaF3 PIM1 cells = BaF3 PIM1 cells (Homo sapiens, UniProt P11309); test: BaF3 PIM1 cell proliferation (Cell Titer Glo); format: cell-based; details: incubated overnight; read-out: Prolif BaF3_PIM1 (IC50)
BaF3 PIM1 cells, sequence (P11309 whole entry, change not shown): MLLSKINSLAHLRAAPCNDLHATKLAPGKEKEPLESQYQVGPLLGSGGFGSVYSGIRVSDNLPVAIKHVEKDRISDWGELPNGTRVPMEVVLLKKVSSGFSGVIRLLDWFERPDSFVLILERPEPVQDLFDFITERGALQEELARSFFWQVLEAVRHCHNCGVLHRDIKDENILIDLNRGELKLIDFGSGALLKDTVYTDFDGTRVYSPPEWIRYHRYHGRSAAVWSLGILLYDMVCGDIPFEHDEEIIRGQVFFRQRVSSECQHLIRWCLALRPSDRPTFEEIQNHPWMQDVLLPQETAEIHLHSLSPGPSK

BaF3 PIM2 cells, sequence (Q9P1W9 whole entry, change not shown): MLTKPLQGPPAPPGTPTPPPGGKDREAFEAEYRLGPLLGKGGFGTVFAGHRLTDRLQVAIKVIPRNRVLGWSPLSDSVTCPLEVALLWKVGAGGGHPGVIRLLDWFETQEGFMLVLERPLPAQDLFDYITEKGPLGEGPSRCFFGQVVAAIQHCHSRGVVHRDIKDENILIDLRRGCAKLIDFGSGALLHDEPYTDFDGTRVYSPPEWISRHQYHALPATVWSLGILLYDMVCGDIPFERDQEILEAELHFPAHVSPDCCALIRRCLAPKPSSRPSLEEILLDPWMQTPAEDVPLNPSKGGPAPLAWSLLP
T2 sequence (Q9P1W9 whole entry): as the sequence (Q9P1W9 whole entry, change not shown) above
T3 sequence (P11309 whole entry): as the sequence (P11309 whole entry, change not shown) above

For `CC(C)Oc1ccc(F)c(-c2nc(C(=O)Nc3cnccc3N3CCC[C@H](N)C3)c(N)s2)c1F` [Example 29, (S)-5-amino-N-(4-(3-aminopiperidin-1-yl)pyridin-3-yl)-2-(3-isopropyloxy-2,6-difluorophenyl)thiazole-4-carboxamide], which GI50 (BaF3 PIM2 cells) is on record?
The GI50 was 4300 nM.

And the Ki (PIM3)?
The Ki was 0.07 nM.

And the EC50 (MM1.S cells)?
The EC50 was 1600 nM.

And the Ki (PIM2)?
Its Ki is 0.565 nM.

What about the Ki (PIM1) of the same compound?
Its Ki is 0.058 nM.

What about the GI50 (BaF3 PIM1 cells) of the same compound?
Its GI50 is 48.9 nM.

Which GI50 (BaF3 PIM2 cells) does the source give for `Nc1sc(-c2ccccc2)nc1C(=O)Nc1cnccc1N1CCC[C@H](N)C1` [Example 7, (S)-5-amino-N-(4-(3-aminopiperidin-1-yl)pyridin-3-yl)-2-phenylthiazole-4-carboxamide] here?
Its GI50 is 3100 nM.

What about the Ki (PIM3) of the same compound?
The Ki was 0.0215 nM.

What about the EC50 (MM1.S cells) of the same compound?
The EC50 was 141 nM.

What about the Ki (PIM2) of the same compound?
Its Ki is 0.203 nM.

And the Ki (PIM1)?
The Ki was 0.091 nM.

What about the GI50 (BaF3 PIM1 cells) of the same compound?
The GI50 was 73 nM.

For `CCCOc1ccc(F)c(-c2nc(C(=O)Nc3cnccc3N3CCC[C@H](N)C3)c(N)s2)c1F` [Example 27, (S)-5-amino-N-(4-(3-aminopiperidin-1-yl)pyridin-3-yl)-2-(3-propyloxy-2,6-difluorophenyl)thiazole-4-carboxamide], which GI50 (BaF3 PIM2 cells) is on record?
The GI50 was 3900 nM.

What about the Ki (PIM3) of the same compound?
Its Ki is 0.05 nM.

What about the EC50 (MM1.S cells) of the same compound?
Its EC50 is 558 nM.

What about the Ki (PIM2) of the same compound?
Its Ki is 0.248 nM.

What about the Ki (PIM1) of the same compound?
The Ki was 0.04 nM.

And the GI50 (BaF3 PIM1 cells)?
Its GI50 is 75.7 nM.

Which results are given for `Nc1sc(-c2ccc(Cl)cc2)nc1C(=O)Nc1cnccc1N1CCC[C@H](N)C1` [Example 12, (S)-5-amino-N-(4-(3-aminopiperidin-1-yl)pyridin-3-yl)-2-(4-chlorophenyl)thiazole-4-carboxamide]?
GI50 (BaF3 PIM2 cells): 4200 nM; Ki (PIM3): 0.072 nM; EC50 (MM1.S cells): 6800 nM; Ki (PIM2): 1.06 nM; Ki (PIM1): 0.172 nM; GI50 (BaF3 PIM1 cells): 2300 nM

What does the source list for `Nc1sc(-c2cccc(F)c2F)nc1C(=O)Nc1cnccc1N1CCC[C@H](N)C1` [Example 43, (S)-5-amino-N-(4-(3-aminopiperidin-1-yl)pyridin-3-yl)-2-(2,3-difluorophenyl)thiazole-4-carboxamide]?
GI50 (BaF3 PIM2 cells): 3900 nM; Ki (PIM3): 0.022 nM; EC50 (MM1.S cells): 237 nM; Ki (PIM2): 0.0185 nM; Ki (PIM1): 0.061 nM; GI50 (BaF3 PIM1 cells): 45.5 nM

What does the source list for `Nc1sc(-c2cc[nH]n2)nc1C(=O)Nc1cnccc1N1CCC[C@H](N)C1` [Example 51, (S)-5-amino-N-(4-(3-aminopiperidin-1-yl)pyridin-3-yl)-2-(1H-pyrazol-3-yl)thiazole-4-carboxamide]?
GI50 (BaF3 PIM2 cells): > 20000 nM; Ki (PIM3): 0.041 nM; EC50 (MM1.S cells): 156 nM; Ki (PIM2): 0.265 nM; Ki (PIM1): 0.0812 nM; GI50 (BaF3 PIM1 cells): 197 nM

Which GI50 (BaF3 PIM2 cells) does the source give for `Nc1sc(-c2c(F)cccc2F)nc1C(=O)Nc1cnccc1N1CCC[C@H](O)C1` [Example 52, (S)-5-amino-2-(2,6-difluorophenyl)-N-(4-(3-hydroxypiperidin-1-yl)pyridin-3-yl)thiazole-4-carboxamide] here?
The GI50 was greater than 20000 nM.

What about the Ki (PIM3) of the same compound?
Its Ki is 0.061 nM.

And the EC50 (MM1.S cells)?
The EC50 was 1300 nM.

What about the Ki (PIM2) of the same compound?
The Ki was 0.495 nM.

What about the Ki (PIM1) of the same compound?
Its Ki is 0.0269 nM.

What about the GI50 (BaF3 PIM1 cells) of the same compound?
The GI50 was 2200 nM.

For `CCNC(=O)Nc1ccc(-c2nc(C(=O)Nc3cnccc3N3CCC[C@H](N)C3)c(N)s2)cc1` [Example 32, (S)-5-amino-N-(4-(3-aminopiperidin-1-yl)pyridin-3-yl)-2-(4-(3-ethylureido)phenyl)thiazole-4-carboxamide], which GI50 (BaF3 PIM2 cells) is on record?
Its GI50 is greater than 20000 nM.

And the Ki (PIM3)?
Its Ki is 0.022 nM.

What about the EC50 (MM1.S cells) of the same compound?
Its EC50 is 650 nM.

What about the Ki (PIM2) of the same compound?
Its Ki is 0.127 nM.

And the Ki (PIM1)?
Its Ki is 0.054 nM.

What about the GI50 (BaF3 PIM1 cells) of the same compound?
The GI50 was 1700 nM.

Which results are given for `Nc1sc(-c2cccnc2)nc1C(=O)Nc1cnccc1N1CCC[C@H](N)C1` [Example 11, (S)-5-amino-N-(4-(3-aminopiperidin-1-yl)pyridin-3-yl)-2-(pyridin-3-yl)thiazole-4-carboxamide]?
GI50 (BaF3 PIM2 cells): 13200 nM; Ki (PIM3): 0.166 nM; EC50 (MM1.S cells): 9200 nM; Ki (PIM2): 0.885 nM; Ki (PIM1): 0.502 nM; GI50 (BaF3 PIM1 cells): 607 nM

With `Nc1sc(-c2cnc3ccccn23)nc1C(=O)Nc1cnccc1N1CCC[C@H](N)C1` [Example 57, (S)-5-amino-N-(4-(3-aminopiperidin-1-yl)pyridin-3-yl)-2-(imidazo[1,2-a]pyridin-3-yl)thiazole-4-carboxamide] as the compound, how does the GI50 (BaF3 PIM2 cells) read?
The GI50 was greater than 20000 nM.

And the Ki (PIM3)?
The Ki was 0.229 nM.

What about the EC50 (MM1.S cells) of the same compound?
Its EC50 is 5100 nM.

What about the Ki (PIM2) of the same compound?
Its Ki is 2.88 nM.

And the Ki (PIM1)?
Its Ki is 0.11 nM.

And the GI50 (BaF3 PIM1 cells)?
The GI50 was 494 nM.

What does the source list for `Nc1sc(-c2ccccc2OC(F)(F)F)nc1C(=O)Nc1cnccc1N1CCC[C@H](N)C1` [Example 15]?
GI50 (BaF3 PIM2 cells): 3300 nM; Ki (PIM3): 1.89 nM; EC50 (MM1.S cells): 4400 nM; Ki (PIM2): 16.4 nM; Ki (PIM1): 1.93 nM; GI50 (BaF3 PIM1 cells): 945 nM

How did the GI50 (BaF3 PIM2 cells) turn out when `CC(C)(C)c1nc(C(=O)Nc2cnccc2N2CCC[C@H](N)C2)c(N)s1` [Example 16, (S)-5-amino-N-(4-(3-aminopiperidin-1-yl)pyridin-3-yl)-2-tert-butylthiazole-4-carboxamide] was run?
The GI50 was greater than 20000 nM.

And the Ki (PIM3)?
Its Ki is 2.26 nM.

What about the EC50 (MM1.S cells) of the same compound?
The EC50 was 10000 to 20000 nM.

What about the Ki (PIM2) of the same compound?
The Ki was 3.83 nM.

And the Ki (PIM1)?
Its Ki is 1.56 nM.

And the GI50 (BaF3 PIM1 cells)?
The GI50 was 926 nM.

What does the source list for `Nc1sc(C2CCCC2)nc1C(=O)Nc1cnccc1N1CCC[C@H](N)C1` [Example 60, (S)-5-amino-N-(4-(3-aminopiperidin-1-yl)pyridin-3-yl)-2-cyclopentylthiazole-4-carboxamide]?
GI50 (BaF3 PIM2 cells): 17600 nM; Ki (PIM3): 0.279 nM; EC50 (MM1.S cells): 1400 nM; Ki (PIM2): 1.16 nM; Ki (PIM1): 1.07 nM; GI50 (BaF3 PIM1 cells): 465 nM

Which results are given for `Nc1sc(-c2c(F)cccc2F)nc1C(=O)Nc1cnccc1N1C[C@@H](N)C[C@@H](F)C1` [Example 63, 5-amino-N-(4-((3S,5R)-3-amino-5-fluoropiperidin-1-yl)pyridin-3-yl)-2-(2,6-difluorophenyl)thiazole-4-carboxamide]?
GI50 (BaF3 PIM2 cells): 12900 nM; Ki (PIM3): 0.246 nM; EC50 (MM1.S cells): 19900 nM; Ki (PIM2): 3.86 nM; Ki (PIM1): 0.437 nM; GI50 (BaF3 PIM1 cells): 3400 nM

For `CN(C)Cc1nc(C(=O)Nc2cnccc2N2CCC[C@H](N)C2)c(N)s1` [Example 21, (S)-5-amino-N-(4-(3-aminopiperidin-1-yl)pyridin-3-yl)-2-((dimethylamino)methyl)thiazole-4-carboxamide], which GI50 (BaF3 PIM2 cells) is on record?
Its GI50 is greater than 20000 nM.

And the Ki (PIM3)?
The Ki was 138 nM.

What about the EC50 (MM1.S cells) of the same compound?
Its EC50 is greater than 20000 nM.

And the Ki (PIM2)?
Its Ki is 242 nM.

What about the Ki (PIM1) of the same compound?
Its Ki is 420 nM.

And the GI50 (BaF3 PIM1 cells)?
Its GI50 is greater than 20000 nM.
